Literature values in patent publication US20050137198A1, “Stable hydrazalazine pharmaceutical compositions” (priority 2003, published 2005).
Read-outs that look alike come from different tables or passages of the source.

Test system: vascular smooth muscle

NNc1nncc2ccccc12 [Hydralazine, 1-hydrazinophthalazine]
onset of action (given intravenously): 10 to 20 min | duration of action (in vivo): 3 to 4 h | onset of action (in vivo): 10 to 30 min | time of maximum hypotensive effect (in vivo): 10 to 80 min
